{"source": "patent US9624237B2", "about": "(priority 2015, dated 2017)", "assay": "Water solubility examination", "assay_type": "physicochemical", "details": "1.44 mg of oridonin in 4 ml water", "method": "Water solubility of the present nanoparticle is examined. 1.44 mg of oridonin is dissolved in 4 ml water. […] Large amount of white insoluble white oridonin powder is observed. On the other hand, oridonin functionalized selenium nanoparticle containing 1.68 mg of oridonin is prepared according to the present invention and dissolved in 4 ml water. […] The oridonin functionalized selenium nanoparticle aqueous solution is orangey red in color and no insoluble residue is observed.", "data": [{"substance": "Oridonin", "values": [{"measurement": "water solubility", "value": "insoluble in water"}]}]}
